Values quoted from earlier work, collected in patent US8338628B2, “Method of synthesizing alkylated bile acid derivatives” (City of Hope, priority 2007, dated 2012).

Assays:
[1] = background statement
[2] = molecular target: T1, farnesoid X receptor (FXR) (Homo sapiens, UniProt Q96RI1); settings: background statement
T1 sequence (Q96RI1 1-486): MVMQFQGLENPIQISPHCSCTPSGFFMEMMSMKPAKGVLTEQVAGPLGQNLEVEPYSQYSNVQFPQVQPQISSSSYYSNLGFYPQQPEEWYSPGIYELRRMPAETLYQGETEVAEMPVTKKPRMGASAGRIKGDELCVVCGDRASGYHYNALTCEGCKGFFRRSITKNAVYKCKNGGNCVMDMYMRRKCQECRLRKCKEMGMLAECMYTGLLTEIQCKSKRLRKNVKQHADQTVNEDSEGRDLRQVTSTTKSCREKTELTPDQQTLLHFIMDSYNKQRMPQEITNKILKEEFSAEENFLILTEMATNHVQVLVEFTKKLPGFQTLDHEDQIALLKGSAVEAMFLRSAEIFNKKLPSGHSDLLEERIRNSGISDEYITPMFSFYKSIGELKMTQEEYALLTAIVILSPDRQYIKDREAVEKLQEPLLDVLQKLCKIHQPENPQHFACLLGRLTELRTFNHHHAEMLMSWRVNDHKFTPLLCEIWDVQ

FXR = settings: in vivo; recent studies

Compound	pharmacokinetic properties (in words) [1]	FXR activation (in words) [2]	HDL-cholesterol (FXR)	plasma triglycerides (FXR)
CC[C@H]1[C@@H](O)[C@@H]2[C@H](CC[C@]3(C)[C@@H]([C@H](C)CCC(=O)O)CC[C@@H]23)[C@@]2(C)CC[C@@H](O)C[C@@H]12 [Compound 6-ECDCA, 3α,7α-Dihydroxy-6α-ethyl-5β-cholan-24-oic acid]	improved pharmacokinetic properties relative to GW4064			
C[C@H](CCC(=O)O)[C@H]1CC[C@H]2[C@@H]3[C@H](O)C[C@@H]4C[C@H](O)CC[C@]4(C)[C@H]3C[C@H](O)[C@]12C [cholic acid]		activate FXR		
CC(C)c1onc(-c2c(Cl)cccc2Cl)c1COc1ccc(/C=C/c2cccc(C(=O)O)c2)c(Cl)c1 [GW4064]	very poor pharmacokinetic properties		increases HDL-cholesterol	reduces plasma triglycerides
